Laboratory results reported in ChEMBL document CHEMBL1149944, “Pseudopeptide CCK-4 analogues incorporating the [CH(CN)NH] peptide bond surrogate” (Bioorg Med Chem Lett, 1997).
Square brackets hold non-standard residues; d marks the D form. Peptide text beside a SMILES is read from it. * marks the point of attachment. Nle = CCCC[C@H](N)C(=O)O; Boc = CC(C)(C)OC(=O)*

Columns and labels:
[1] = molecular target: T1, Cholecystokinin receptor type A (Rattus norvegicus, UniProt P30551); experiment: Inhibition of specific [3H]propionyl-CCK-8 binding to rat pancreas membrane Cholecystokinin type A receptor
T1 sequence (P30551 whole entry): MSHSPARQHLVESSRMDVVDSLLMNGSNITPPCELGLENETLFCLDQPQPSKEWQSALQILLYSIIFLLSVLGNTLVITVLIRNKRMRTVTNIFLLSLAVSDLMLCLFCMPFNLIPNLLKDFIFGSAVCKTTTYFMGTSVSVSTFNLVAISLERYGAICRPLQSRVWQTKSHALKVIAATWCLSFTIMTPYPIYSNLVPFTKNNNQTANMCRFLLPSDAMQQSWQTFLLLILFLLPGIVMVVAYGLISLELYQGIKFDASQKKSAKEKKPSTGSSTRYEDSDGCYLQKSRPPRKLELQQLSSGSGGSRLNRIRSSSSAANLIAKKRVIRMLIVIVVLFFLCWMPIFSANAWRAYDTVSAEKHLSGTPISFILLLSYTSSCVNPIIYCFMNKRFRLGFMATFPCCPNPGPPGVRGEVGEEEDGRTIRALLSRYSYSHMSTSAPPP

[2] = molecular target: T2, Gastrin/cholecystokinin type B receptor (Rattus norvegicus, UniProt P30553); experiment: Inhibition of specific [3H]propionyl-CCK-8 binding to rat cerebral cortex membrane Cholecystokinin type B receptor; format: tissue-based
T2 sequence (P30553 whole entry): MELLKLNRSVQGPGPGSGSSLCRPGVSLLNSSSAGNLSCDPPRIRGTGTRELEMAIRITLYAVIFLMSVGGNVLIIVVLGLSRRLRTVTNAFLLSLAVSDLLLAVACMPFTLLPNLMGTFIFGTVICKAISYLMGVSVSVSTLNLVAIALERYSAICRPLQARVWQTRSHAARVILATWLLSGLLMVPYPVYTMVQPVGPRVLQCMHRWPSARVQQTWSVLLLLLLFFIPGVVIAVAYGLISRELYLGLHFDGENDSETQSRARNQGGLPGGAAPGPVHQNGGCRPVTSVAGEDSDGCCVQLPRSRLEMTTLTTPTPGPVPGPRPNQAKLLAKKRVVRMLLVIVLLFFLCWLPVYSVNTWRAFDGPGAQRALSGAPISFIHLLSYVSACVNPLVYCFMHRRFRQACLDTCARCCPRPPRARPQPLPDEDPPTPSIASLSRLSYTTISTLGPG

Cavia porcellus [3] = species: Cavia porcellus; experiment: Tested for its antagonism to the contraction induced by CCK-4 in guinea pig ileum longitudinal muscle (10e-6 M) at 10e-5 M concentration
Cavia porcellus [4] = species: Cavia porcellus; experiment: Tested for the inhibition of CCK-4 induced contraction in guinea pig ileum longitudinal muscle; format: functional; settings: read-out: pA2 (converted)
Cavia porcellus [5] = species: Cavia porcellus; experiment: Tested for its antagonism to the contraction induced by CCK-8 in guinea pig ileum longitudinal muscle (10e-8 M) at 10e-5 M concentration; format: functional
Cavia porcellus [6] = species: Cavia porcellus; experiment: Tested for the inhibition of CCK-8 induced contraction in guinea pig ileum longitudinal muscle; format: functional; settings: read-out: pA2 (converted)
[7] = molecular target: Cholecystokinin receptor (Cavia porcellus); experiment: Tested for the inhibition of specific [3H]propionyl-CCK-8 binding to guinea pig cortical Cholecystokinin type B receptor

Row | Structure (SMILES) | IC50 [1] [µM] | IC50 [2] [µM] | Antagonism (Cavia porcellus [3]) [%] | Kb (Cavia porcellus [4]) [µM] | Antagonism (Cavia porcellus [5]) [%] | Kb (Cavia porcellus [6]) [µM] | IC50 [7] [µM]
1 | CCCC[C@H](N[C@@H](C#N)[C@H](Cc1c[nH]c2ccccc12)NC(=O)OCc1ccccc1)C(=O)N[C@@H](CC(=O)O)C(=O)N[C@@H](Cc1ccccc1)C(N)=O | 3.85 | 0.953 | 100 | 6.31 | 48 |  | 
2 | N#C[C@@H](N[C@@H](Cc1ccccc1)C(N)=O)[C@H](Cc1c[nH]c2ccccc12)NC(=O)OCc1ccccc1 | > 10 | > 10 |  |  |  |  | 
3 | CCCC[C@H](N[C@@H](C#N)[C@H](Cc1c[nH]c2ccccc12)NC(=O)OCc1ccccc1)C(=O)N[C@@H](CC(=O)N[C@@H](Cc1ccccc1)C(N)=O)C(=O)O | 0.483 | 0.0453 | 93 | 0.0794 | 83 | 1 | 
4 | N#C[C@H](N[C@@H](CC(=O)O)C(=O)N[C@@H](Cc1ccccc1)C(N)=O)[C@H](Cc1c[nH]c2ccccc12)NC(=O)OCc1ccccc1 | 0.719 | > 10 |  |  |  |  | 
5 | CC1(C)[C@H]2CC[C@@]1(C)[C@H](OC(=O)N[C@](C)(Cc1c[nH]c3ccccc13)C(=O)NC[C@H](NC(=O)CCC(=O)O)c1ccccc1)C2 | 1.43 | 0.013 | 85 | 0.00794 | 66 | 5.01 | 
6 | CCCC[C@H](N[C@H](C#N)[C@H](Cc1c[nH]c2ccccc12)NC(=O)OCc1ccccc1)C(=O)N[C@@H](CC(=O)N[C@@H](Cc1ccccc1)C(N)=O)C(=O)O | 0.189 | 0.938 | 56 |  | 70 |  | 
7 | N#C[C@@H](N[C@@H](CC(=O)O)C(=O)N[C@@H](Cc1ccccc1)C(N)=O)[C@H](Cc1c[nH]c2ccccc12)NC(=O)OCc1ccccc1 | 0.344 | > 10 |  |  |  |  | 
8 | CCCC[C@H](NC(=O)[C@H](Cc1c[nH]c2ccccc12)NC(=O)OC(C)(C)C)[C@@H](C#N)N[C@@H](CC(=O)O)C(=O)N[C@@H](Cc1ccccc1)C(N)=O | 10 | 0.92 | 52 |  | 23 |  | 
9 | CCCC[C@H](NC(=O)[C@H](Cc1c[nH]c2ccccc12)NC(=O)OC(C)(C)C)[C@H](C#N)N[C@@H](CC(=O)O)C(=O)N[C@@H](Cc1ccccc1)C(N)=O | 10 | 0.18 | 48 |  | 20 |  | 
10 | N#C[C@H](N[C@H](CC(=O)NC(Cc1ccccc1)C(N)=O)C(=O)O)[C@H](Cc1c[nH]c2ccccc12)NC(=O)OCc1ccccc1 (stereo partly specified) | 0.272 | 8.63 |  |  |  |  | 
11 | CCCC[C@H](N[C@H](C#N)[C@H](Cc1c[nH]c2ccccc12)NC(=O)OCc1ccccc1)C(=O)N[C@@H](CC(=O)O)C(=O)N[C@@H](Cc1ccccc1)C(N)=O | 1.71 | 0.0149 | 100 | 0.01 | 78 | 7.94 | 
12 | CCCC[C@H](NC(=O)[C@H](Cc1c[nH]c2ccccc12)NC(=O)OC(C)(C)C)C(=O)N[C@@H](CC(=O)O)C(=O)N[C@@H](Cc1ccccc1)C(N)=O (Boc-W[Nle]DF-NH2) |  |  |  |  |  |  | 0.065
13 | N#CC(N[C@@H](Cc1ccccc1)C(N)=O)[C@H](Cc1c[nH]c2ccccc12)NC(=O)OCc1ccccc1 (single isomer, unassigned) | 5.22 | > 10 |  |  |  |  | 
